Several values for one entry are separate records, joined by “and”; a condition that tells them apart may be missing. Identical values can stand only once. Like-named read-outs stand apart in the source and are kept apart here.
Columns and labels:
[1] = biological target: T1, HDAC1 (Homo sapiens, UniProt Q13547); assay: HDAC enzyme assay, in vitro biochemical
T1 construct: purchased BPS Biosciences
Method: (§1) In vitro biochemical assays were performed as described previously. Specifically, compounds were dissolved and diluted in assay buffer (50 mM HEPES, pH 7.4, 100 mM KCl, 0.001% Tween-20, 0.05% BSA, and 20 μM Tris (2-carboxyethyl) phosphine) to 6-fold the final concentration. […] The amount of substrate (acetyl-lysine tripeptide) used for each enzyme was equal to the Michaelis constant (Km), as determined by a titration curve. Substrate was diluted in assay buffer to 6-fold of the final concentration with 0.3 μM sequencing grade trypsin (Sigma-Aldrich). The substrate/trypsin mix was added to the enzyme/compound mix and the plate was shaken for 5 seconds and then placed into a SpectraMax M5 microtiter (Molecular Devices) plate reader. The enzymatic reaction was monitored over 30 minutes for release of […] after deacetylation of the lysine side chain in the peptide substrate, and the linear rate of the reaction was calculated.

[2] = biological target: T2, HDAC2 (Homo sapiens, UniProt Q92769); assay: HDAC enzyme assay, in vitro biochemical
T2 construct: purchased BPS Biosciences
T2 sequence (Q92769 whole entry): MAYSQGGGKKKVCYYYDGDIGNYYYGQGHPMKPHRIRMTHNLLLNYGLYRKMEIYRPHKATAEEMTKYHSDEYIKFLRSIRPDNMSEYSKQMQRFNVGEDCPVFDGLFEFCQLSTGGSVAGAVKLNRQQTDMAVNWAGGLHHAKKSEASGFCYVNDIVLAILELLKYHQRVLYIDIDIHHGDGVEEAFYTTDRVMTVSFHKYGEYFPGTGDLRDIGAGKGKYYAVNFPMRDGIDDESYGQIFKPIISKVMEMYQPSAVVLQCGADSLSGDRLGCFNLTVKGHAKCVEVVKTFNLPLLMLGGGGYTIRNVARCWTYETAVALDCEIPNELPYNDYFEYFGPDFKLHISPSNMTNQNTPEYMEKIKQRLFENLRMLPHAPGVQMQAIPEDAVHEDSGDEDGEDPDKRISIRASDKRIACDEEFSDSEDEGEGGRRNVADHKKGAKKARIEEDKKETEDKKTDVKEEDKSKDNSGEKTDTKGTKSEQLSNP
Method: as §1

[3] = biological target: T3, HDAC3 (Homo sapiens, UniProt O15379); assay: HDAC enzyme assay, in vitro biochemical; conditions: pre-incubated 24 hours at 4°C; n = 3; read-out: IC50 against HDAC3
T3 construct: purchased BPS Biosciences
T3 sequence (O15379 whole entry): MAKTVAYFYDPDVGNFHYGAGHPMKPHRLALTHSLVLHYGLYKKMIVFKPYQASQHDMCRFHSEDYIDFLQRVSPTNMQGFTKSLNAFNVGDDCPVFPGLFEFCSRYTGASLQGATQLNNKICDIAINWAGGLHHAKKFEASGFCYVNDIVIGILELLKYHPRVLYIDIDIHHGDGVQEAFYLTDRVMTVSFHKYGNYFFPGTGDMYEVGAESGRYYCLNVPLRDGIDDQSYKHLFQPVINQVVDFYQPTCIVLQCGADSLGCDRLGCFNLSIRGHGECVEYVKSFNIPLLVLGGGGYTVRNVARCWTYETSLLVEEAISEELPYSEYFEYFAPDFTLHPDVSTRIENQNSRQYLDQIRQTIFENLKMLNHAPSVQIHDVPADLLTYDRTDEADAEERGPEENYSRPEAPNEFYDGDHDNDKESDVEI
T3 sequence (Q9Y618 395-489 partner limits assumed): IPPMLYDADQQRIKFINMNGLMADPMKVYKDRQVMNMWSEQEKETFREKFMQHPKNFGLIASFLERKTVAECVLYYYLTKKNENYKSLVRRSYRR
Method: as §1

[4] = biological target: T4, HDAC7 (Homo sapiens, UniProt Q8WUI4); assay: HDAC enzyme assay, in vitro biochemical; conditions: maximum concentration tested of 20 μM
T4 construct: purchased BPS Biosciences
T4 sequence (Q8WUI4 1-952): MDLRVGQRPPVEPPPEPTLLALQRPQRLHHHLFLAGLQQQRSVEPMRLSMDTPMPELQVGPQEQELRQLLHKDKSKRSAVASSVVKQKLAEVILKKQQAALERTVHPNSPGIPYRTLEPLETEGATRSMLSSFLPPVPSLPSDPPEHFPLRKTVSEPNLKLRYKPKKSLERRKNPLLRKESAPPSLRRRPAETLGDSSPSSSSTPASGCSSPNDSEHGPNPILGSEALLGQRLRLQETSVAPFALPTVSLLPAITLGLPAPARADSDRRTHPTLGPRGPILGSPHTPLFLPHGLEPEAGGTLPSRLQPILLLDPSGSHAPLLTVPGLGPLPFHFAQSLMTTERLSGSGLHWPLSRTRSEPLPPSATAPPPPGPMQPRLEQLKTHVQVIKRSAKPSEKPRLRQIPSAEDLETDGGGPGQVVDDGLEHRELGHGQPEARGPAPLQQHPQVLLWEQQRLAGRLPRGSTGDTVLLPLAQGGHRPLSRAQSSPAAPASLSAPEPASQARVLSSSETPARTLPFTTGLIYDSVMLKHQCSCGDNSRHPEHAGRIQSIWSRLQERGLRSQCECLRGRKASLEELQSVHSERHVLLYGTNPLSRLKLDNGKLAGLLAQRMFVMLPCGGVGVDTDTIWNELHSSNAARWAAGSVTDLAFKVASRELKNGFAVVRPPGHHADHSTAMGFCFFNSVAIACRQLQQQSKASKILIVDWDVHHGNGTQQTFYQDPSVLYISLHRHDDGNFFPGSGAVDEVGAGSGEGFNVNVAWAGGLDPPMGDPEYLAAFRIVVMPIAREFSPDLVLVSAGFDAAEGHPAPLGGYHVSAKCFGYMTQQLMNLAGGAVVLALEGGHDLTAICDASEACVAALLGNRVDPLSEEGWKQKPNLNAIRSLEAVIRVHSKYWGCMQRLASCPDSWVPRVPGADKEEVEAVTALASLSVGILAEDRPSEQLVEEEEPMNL
Method: as §1
(§2) biochemical assay for HDAC4, HDAC5, HDAC6, HDAC7, HDAC8, HDAC9 inhibition by ACY-1035.
(§3) (1 picture or pasted object on this page, not shown here)

[5] = biological target: T5, HDAC9 (Homo sapiens, UniProt Q9UKV0); assay: HDAC enzyme assay, in vitro biochemical; conditions: maximum concentration tested of 20 μM
T5 construct: purchased BPS Biosciences
T5 sequence (Q9UKV0 whole entry): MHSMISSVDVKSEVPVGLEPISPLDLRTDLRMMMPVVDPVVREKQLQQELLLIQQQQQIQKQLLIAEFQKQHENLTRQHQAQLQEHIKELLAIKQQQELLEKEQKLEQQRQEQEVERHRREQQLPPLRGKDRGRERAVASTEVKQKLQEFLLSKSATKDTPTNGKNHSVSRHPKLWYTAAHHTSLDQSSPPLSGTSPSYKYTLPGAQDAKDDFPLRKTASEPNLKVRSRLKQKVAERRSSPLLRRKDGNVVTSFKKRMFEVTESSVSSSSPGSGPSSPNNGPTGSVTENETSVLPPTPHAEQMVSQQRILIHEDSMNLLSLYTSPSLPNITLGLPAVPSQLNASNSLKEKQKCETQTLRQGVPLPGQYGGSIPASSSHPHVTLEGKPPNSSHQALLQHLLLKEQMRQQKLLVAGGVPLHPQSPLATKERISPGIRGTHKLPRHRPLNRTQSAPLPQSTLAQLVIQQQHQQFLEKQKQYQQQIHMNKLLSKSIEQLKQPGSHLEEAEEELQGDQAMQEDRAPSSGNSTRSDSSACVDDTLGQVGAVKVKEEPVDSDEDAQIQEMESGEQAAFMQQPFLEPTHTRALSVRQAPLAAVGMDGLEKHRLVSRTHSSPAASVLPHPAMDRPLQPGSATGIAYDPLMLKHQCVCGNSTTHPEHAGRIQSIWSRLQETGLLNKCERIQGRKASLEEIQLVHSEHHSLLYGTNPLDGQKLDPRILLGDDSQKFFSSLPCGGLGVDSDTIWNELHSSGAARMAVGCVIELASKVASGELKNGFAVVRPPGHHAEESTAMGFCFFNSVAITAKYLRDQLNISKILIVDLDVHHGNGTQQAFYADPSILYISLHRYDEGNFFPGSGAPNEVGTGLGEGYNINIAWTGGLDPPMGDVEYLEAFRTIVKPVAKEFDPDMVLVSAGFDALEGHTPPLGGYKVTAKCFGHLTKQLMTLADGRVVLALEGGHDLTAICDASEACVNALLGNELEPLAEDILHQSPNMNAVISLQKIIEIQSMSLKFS
Method: as §1, §2, §3

[6] = tested on: MV-4-11, Kasumi-1 and HL-60 cell lines; assay: Histone acetylation by immunoblotting; format: cell-based, human; conditions: 24 hours, increasing doses
Description: The EpiQuick Total Histone Extraction kit (Epigentek) was used to isolate histones. Histone lysates were size separated on Bolt 10% Bis-Tris gradient gels (Life Technologies), transferred to polyvinylidene difluoride membranes, blocked in 5% BSA, and detected using standard western blotting techniques.

[7] = tested on: MV-4-11 and HL-60 cells; assay: Flow cytometry, apoptosis (Annexin V); format: cell-based, human; conditions: single agent, 96 hours
Method: All compounds and/or solvent DMSO were added concurrently at the indicated doses. Flow cytometry was performed to measure surface level of CD11b, cell cycle distribution, and induction of apoptosis. CD11b and apoptosis were analyzed on a FC500 flow cytometer ([…]) and cell cycle profiled on an Attune NxT (Life Technologies).
Annexin V-positive populations were quantified.

[8] = tested on: Kasumi-1 cells; assay: Cell viability assay (CellTiter-Glo); conditions: read-out: IC50 cell viability Kasumi-1; 72 hours
Method: (§4) MV-4-11, Kasumi-1, and HL-60 AML cell lines were all obtained from ATCC. MOLM-13 and NB-4 cell lines were obtained from DSMZ. […] The identity of each cell line was validated and documented by the suppliers. All experiments were performed with cells maintained at low passage numbers.
(§5) Compounds and/or solvent dimethyl sulfoxide (DMSO) were added at the same time using an HP D300 digital dispenser (Hewlett Packard) in triplicate or quadruplicate and incubated for 72 hours at 37°C. Viability was measured by adding 25 μL CellTiter-Glo (Promega), incubating for 10 minutes, and measuring luminescence on a SpectraMax (Molecular Devices). […] CI < 1 indicates synergism, CI = 1 indicates additivity, and CI > 1 indicates antagonism.

[9] = tested on: HL-60 cells; assay: Cell viability assay (CellTiter-Glo); conditions: read-out: IC50 cell viability HL-60; 72 hours
Method: as §4, §5

[10] = tested on: five human AML cell lines (MV-4-11, Kasumi-1, HL-60, MOLM-13, NB-4); assay: Cell viability assay, summary over five human AML cell lines; conditions: 72 hours
Method: as §4, §5

[11] = tested on: MOLM-13 cells; assay: Cell viability assay (CellTiter-Glo), single agent and combination; conditions: read-out: IC50 cell viability MOLM-13; 72 hours
Method: as §4, §5

[12] = tested on: MOLM-13 xenograft; assay: In vivo model of AML: MOLM-13 xenograft, time to endpoint (TTE) and survival; conditions: Azacitidine 5.5 mg/kg, iv, bi-weekly; for Tumor volume: individual animal;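 on all read-outs here: female Crl:NU(NCr)-Foxn1^nu mice bearing subcutaneous flank MOLM-13 tumors, caliper-measured twice per week, volume as width^2 × length/2, endpoint reached at 2000 mm^3 tumor volume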

T1 sequence (Q13547 whole entry): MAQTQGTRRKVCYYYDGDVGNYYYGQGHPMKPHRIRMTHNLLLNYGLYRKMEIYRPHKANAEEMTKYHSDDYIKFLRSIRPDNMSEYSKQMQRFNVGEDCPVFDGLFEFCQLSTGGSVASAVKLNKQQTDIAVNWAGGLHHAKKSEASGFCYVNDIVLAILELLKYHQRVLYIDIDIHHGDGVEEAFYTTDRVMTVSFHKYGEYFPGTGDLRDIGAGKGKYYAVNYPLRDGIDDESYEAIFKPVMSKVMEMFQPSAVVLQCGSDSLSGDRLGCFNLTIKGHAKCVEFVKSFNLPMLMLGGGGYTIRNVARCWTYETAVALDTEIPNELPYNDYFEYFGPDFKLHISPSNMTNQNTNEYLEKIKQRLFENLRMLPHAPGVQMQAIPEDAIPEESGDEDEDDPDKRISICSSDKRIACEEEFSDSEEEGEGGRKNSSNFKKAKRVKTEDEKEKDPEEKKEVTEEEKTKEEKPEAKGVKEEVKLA

In the case of Nc1ccc(-c2cccs2)cc1NC(=O)c1ccc2c(c1)cc(C1CC1)n2CCN1CCOCC1 [ACY-1035], the “selectivity for HDAC1 over HDAC3” value [1] is reported as “more than 150 fold”, the IC50 ([1]; pre-incubated 24 hours at 4°C, n = 3, read-out: IC50 against HDAC1) is reported as 0.0094 µM and the “selectivity for HDAC2 over HDAC3” value [2] is reported as “approximately 50 fold”. For the same molecule, the IC50 ([2]; pre-incubated 24 hours at 4°C, n = 3, read-out: IC50 against HDAC2) was 0.023 µM, the IC50 [3] was 2 µM and the “inhibition of HDAC7” value [4] was “did not inhibit”. For the same molecule, the “inhibition of HDAC9” value [5] was “did not inhibit”, the “acetylation on histone H2B lysine 5 (H2BK5ac) and histone H3 lysine 56 (H3K56ac)” value [6] was “dose-dependent accumulation” and the “apoptosis, staining for annexin V” value [7] was “increased staining for annexin V”. It also gave an IC50 [8] of 2.6 µM, an IC50 [9] of 3.3 µM and an IC50 ([10]; read-out: IC50 values cell viability, range, five human AML cell lines, both compounds) of 0.8 to 3.3 µM. It also gave an IC50 ([10]; read-out: average IC50 value, viability of AML cells, average of five AML cell lines) of 2.6 µM and an IC50 [11] of 2.9 µM.

For Nc1ncn([C@@H]2O[C@H](CO)[C@@H](O)[C@H]2O)c(=O)n1 [azacitidine], the TTE ([12]; TTE for individual animal) was 14.4 and 17 and 17.1 and 17.2 and 17.4 and 17.6 and 17.7, the Tumor volume ([12]; day of study 1) was 108 mm3 and 126 mm3 and 144 mm3 and 172 mm3 and the Tumor volume ([12]; day of study 5) was 172 mm3 and 126 mm3 and 245 mm3 and 196 mm3 and 365 mm3 and 256 mm3. For the same molecule, the Tumor volume ([12]; day of study 8) was 500 mm3 and 365 mm3 and 405 mm3 and 700 mm3 and 288 mm3 and 650 mm3 and 726 mm3 and 550 mm3, the Tumor volume ([12]; day of study 12) was 1470 mm3 and 936 mm3 and 1183 mm3 and 1862 mm3 and 787 mm3 and 1080 mm3 and 1008 mm3 and 1152 mm3 and 1666 mm3 and the Tumor volume ([12]; day of study 15) was 1913 mm3 and 1568 mm3 and 2025 mm3 and 2816 mm3 and 1268 mm3 and 1666 mm3 and 1764 mm3 and 3240 mm3. The Tumor volume ([12]; day of study 19) was 2025 mm3 and 2432 mm3 and 2176 mm3 and 2138 mm3 and 2250 mm3.

Reference: paper PMC5218480 (PLoS ONE, 2017)
